Laboratory results from US20080090788A1, “Chemical Compounds” (priority 2005, published 2008).

Assays:
IkB-α promoter = IkB-α promoter luciferase activity in transfected activated HSC; type: cell-based; conditions: 24 hours, rat HSC; for inhibition of IkB-α promoter activity compared with SFZ 1 mM: 3a 0.150 mM, 3e 0.127 mM, 3f 0.089 mM (at IC50)
Experimental: For HSC transfections, activated HSC were transfected by the non-liposomal Effectene protocol (Qiagen, UK) using 1 μg reporter plasmid DNA and 10 ng of control Renilla plasmid pRLTK (Promega, Southampton, UK) according to the manufacturer's instructions. After 24 hours, HSC were treated with test compounds for a further 24 hours. Luciferase assays were performed using a dual luciferase kit (Promega) according to the manufacturer's instructions. Firefly luciferase activities were normalised for differences in transfection efficiency by measurement of the activity of the co-transfected pRLTK. The pIκBα wt-Luc plasmid contains nucleotides −332 to +35 of the human IkB-α promoter cloned upstream of luciferase gene (Oakley F, et al, J Biol Chem 2003; 278: 24359-70). The pTIMP1-Luc plasmid contains the 162 bp human TIMP1 minimal promoter cloned upstream of luciferase gene (Bertrand-Philippe M, et al. J Biol Chem 2004; 279: 24530-9). The pAP1-Luc plasmid (Stratagene, UK) contains 7 copies of a consensus AP-1 binding site upstream of the minimal promoter and the luciferase gene.
To extend these findings, further analyses were performed using the […] promoter which contains multiple NF-kB binding sites and is a well studied NF-kB target. […] Consistent with the presence of activated NF-kB in HSC, (Wright M C et al, Gastroenterology 2001; 121: 685-98.) the IkB-α promoter was activated in HSC (FIG. 2a). SFZ (1 mM) inhibited promoter activity by >60%. […] Therefore, the improved inhibitory activity of analogues 3a, 3e and 3f is specific for NF-kB mediated transcription and is not restricted to U937 cells or artificial promoter constructs.
Rat HSC were transfected with (A) IkB-α-Luc, (B) TIMP1-Luc or (C) pAP-1-Luc reporter constructs. After 24 hours, cells were treated with sulfasalazine (1 mM), 3a (0.150 mM), 3e (0.127 mM), 3f (0.089 mM), or treated with DMSO as a control. Luciferase activity was determined after another 24 hours. Data presented are mean luciferase activity (±SEM) relative to control cells (value set to 100), derived from two separate experiments, each performed in duplicate and using an independent preparation of HSC.

IkB-α = IkB-α phosphorylation and degradation by immunoblotting in LPS-stimulated U937 cells; type: cell-based, human; conditions: 30 minutes after LPS; for effect on IkB-α phosphorylation and degradation: 1 hour pretreatment
Experimental: Western blotting was performed as previously described (Brimmell M, Burns J S, Munson P, et al. High level expression of differentially localized BAG-1 isoforms in some oestrogen receptor-positive human breast cancers. Br J Cancer 1999; 81: 1042-51). IkB-α and phospho-Ser32 specific IkB-α antibodies were from Cell Signaling Technology (Hitchin, UK). The PARP antibody (C2-10 clone) was from R&D Systems (Abingdon, UK).
To determine the kinetics of modulation of IkB-α by LPS, U937 cells were treated with LPS for up to 120 minutes and total IkB-α and phosphorylated IkB-αanalysed by immunoblotting. There was a rapid accumulation of phosphorylated IkB-α, accompanied by IkB-α degradation (FIG. 3a). To confirm that the enhanced NF-kB inhibitory activity of compounds 3a, 3e and 3f was due to increased inhibition of IKK, we pretreated cells with these compounds and then stimulated them with LPS. IkB-α was analysed at 30 minutes after the addition of LPS because it was possible to monitor both phosphorylation and degradation at this time. […] Therefore, the improved NF-kB inhibitory activity of compounds 3a, 3e and 3f is associated with effective inhibition of IkB-α phosphorylation.
(A) U937-kBluc cells were treated with LPS for the indicated times and expression of total IkB-α and phosphorylated IkB-α determined by immunoblotting. (B) U937-kBluc cells were pretreated with the indicated concentrations of compounds or left untreated. After 1 hour, cells were stimulated with LPS. Control cells were cultured in the absence of LPS. Cells were harvested after 30 minutes and the expression of total IkB-α and phosphorylated IkB-α determined by immunoblotting. The signals were quantified by digital image analysis and the fold increase in IkB-α phosphorylation and percent expression of total IkB-α relative to control cells is shown.

[1] = system: Hepatic stellate cells (HSC); assay: HSC apoptosis by acridine orange staining; type: cell-based, rat; conditions: for degree of HSC apoptosis compared with SFZ 1 mM: 3a 0.150 mM, 3e 0.127 mM, 3f 0.089 mM (approximately 5-fold lower concentrations)
Experimental: To determine the effects of SFZ analogues on HSC survival, activated HSC were treated for 24 hrs with SFZ or analogues, and apoptotic HSC were visualised by staining with Acridine orange (1 μg/ml in 10 mM 4-(2-hydroxyethyl)-1-piperazineethanesulfonic acid (Hepes) buffer, pH7.4). The proportion of apoptotic cells in five random fields were counted in duplicate wells at x20 magnification using a fluorescein isothiocyanate filter. Apoptosis of HSC measured by acridine orange correlates closely with activation of caspase 3.
In addition to its role in malignant cells, NF-kB is required for survival of HSC, which play a key role in the pathogenesis of chronic liver disease. The ability of SFZ and analogues to induce HSC apoptosis was also compared. SFZ (1 mM) increased apoptosis ˜4.5-fold in cultured rat HSC (FIG. 5b). […] Therefore, the SFZ analogues with improved NF-kB-inhibiting activity are also relatively potent inducers of HSC apoptosis.
(A) CLL cells from three different patients were cultured in the presence of SFZ or compounds 3a and 3f (all at 0.5 mM), or DMSO as a solvent control. After 6 hours, the degree of PARP cleavage was determined as a measure of apoptosis. […] Note that compound 3f was not tested in cells from patient 3. (B) HSC were cultured in the presence of SFZ (1 mM), compounds 3a (0.150 mM), 3e (0.127 mM), 3f (0.089 mM), or DMSO as a solvent control. Analogues were used at the concentration that gave 50% inhibition of NF-kB transcriptional activity in U937 cells. After 20 hours, the proportion of apoptotic cells were visualised by acridine orange staining. Apoptotic cells were counted in five fields in duplicate for each concentration, in two independent experiments and results expressed as mean ±SEM,

Row | SMILES | inhibition of IkB-α promoter activity compared with SFZ 1 mM (IkB-α promoter) | effect on IkB-α phosphorylation and degradation (IkB-α; 200 μM) | effect on IkB-α phosphorylation and degradation (IkB-α; 500 μM) | degree of HSC apoptosis compared with SFZ 1 mM [1] | inhibition at 1000 µM (IkB-α promoter; SFZ 1 mM) [%] | effect on regulation of IkB-α (IkB-α; 1 mM) | increase in apoptosis of cultured HSC ([1]; SFZ 1 mM, cultured rat HSC) [fold]
1 | COc1ccc(CNS(=O)(=O)c2ccc(/N=N/c3ccc(O)c(C(=O)O)c3)cc2)cc1 [Compound 3a, 2-hydroxy-5-[4-(4-methoxy-benzylsulfamoyl)-phenylazo]-benzoic acid] | approximately equally effective | partially effective | prevented IkB-α phosphorylation and degradation | approximately the same degree of apoptosis |  |  | 
2 | Cc1cc(/N=N/c2ccc(S(=O)(=O)NCc3ccc(C(F)(F)F)cc3)cc2)cc(C(=O)O)c1O [Compound 3e, 2-hydroxy-3-methyl-5-[4-(4-trifluoromethyl-benzylsulfamoyl)-phenylazo]-benzoic acid] | approximately equally effective | partially effective | prevented IkB-α phosphorylation and degradation | approximately the same degree of apoptosis |  |  | 
3 | O=C(O)c1cc(/N=N/c2ccc(S(=O)(=O)NCc3ccc(C(F)(F)F)cc3)cc2)ccc1O [Compound 3f, 2-hydroxy-5-[4-(4-trifluoromethyl-benzylsulfamoyl)-phenylazo]-benzoic acid] | approximately equally effective | partially effective | prevented IkB-α phosphorylation and degradation | approximately the same degree of apoptosis |  |  | 
4 | O=C(O)c1cc(/N=N/c2ccc(S(=O)(=O)Nc3ccccn3)cc2)ccc1O [SFZ, Sulfasalazine, reference compound] |  |  |  |  | > 60 | only very modest effects | ~4.5
